According to patent publication US20250144067A1, “PERSONALIZED STARVATION THERAPY FOR CANCER” (Faeth Therapeutics, Inc., priority 2021, published 2025):
Where a name gives a salt, the structure may show the parent alone. Read-outs that look alike come from different tables or passages of the source.

Tests used:
[1] = system: NCI-H292 lung cancer cells; test: FDA drug screening, complete media vs cholesterol-free media with simvastatin (TABLE 2); type: cell-based, human
[2] = system: NCI-H292 lung cancer cells; test: FDA drug screening, complete media vs cholesterol-free media without statin (TABLE 1); type: cell-based, human
[3] = NCI-H292 cells, cholesterol-free media with simvastatin 0.04 μM, cell growth value in FDA drug screen
[4] = NCI-H292 cells, complete media, cell growth value in FDA drug screen
[5] = complete media minus cholesterol-free media + simvastatin, >0 enhanced anti-cancer activity, about 0 neutral, <0 antagonist
[6] = Complete minus Cholesterol-free, >0 enhanced anti-cancer activity, about 0 neutral, <0 antagonist
[7] = NCI-H292 cells, cholesterol-free media without statin
[8] = NCI-H292 cells, FDA library drug in cholesterol-free media with simvastatin 0.04 μM
[9] = NCI-H292 cells, FDA library drug in complete media
[10] = complete media vs cholesterol-free media + simvastatin (0.04 μM), >0 enhanced anti-cancer activity, about 0 neutral, <0 antagonist
[11] = complete vs cholesterol-free media, greater than 0 enhanced anti-cancer activity, about 0 neutral, below 0 antagonists
[12] = NCI-H292 cells, cholesterol-free media without statin, FDA drug library screen
[13] = NCI-H292 cells, complete media, FDA drug library screen
[14] = complete vs cholesterol-free media, >0 enhanced anti-cancer activity, about 0 neutral, <0 antagonist
[15] = NCI-H292 cells, FDA drug library screen, cholesterol-free media with simvastatin 0.04 μM
[16] = NCI-H292 cells, FDA drug library screen, complete media

C[C@H](CCC(=O)O)[C@H]1CC[C@H]2[C@@H]3C(=O)C[C@@H]4CC(=O)CC[C@]4(C)[C@H]3CC(=O)[C@]12C [Dehydrocholic acid]
Cholesterol-free media + simvastatin (0.04 μM) [1, 3]: 0.8533
Complete Media [1, 4]: 0.9003
Difference [1, 5]: 0.05
Difference [2, 6]: −0.25
Cholesterol-free [2, 7]: 1.151
Complete ([2]; NCI-H292 cells, complete media): 0.9012

CCCCN(CCCC)CCC(O)c1cc2c(Cl)cc(Cl)cc2c2cc(C(F)(F)F)ccc12 (stereo not shown) [Halofantrine hydrochloride]
Cholesterol-free media + simvastatin (0.04 μM) [1, 8]: 1.233
Complete Media [1, 9]: 0.9282
Difference [1, 10]: −0.30
Cholesterol-free [2, 7]: 1.176
Complete ([2]; NCI-H292 cells, complete media): 0.7446
Difference [2, 11]: −0.43

O=C(NCCO[N+](=O)[O-])c1cccnc1 [Nicorandil]
Cholesterol-free media + simvastatin (0.04 μM) [1, 3]: 0.9809
Complete Media [1, 4]: 1.055
Difference [1, 5]: 0.07
Cholesterol-free [2, 12]: 0.8284
Complete [2, 13]: 1.354
Difference [2, 14]: 0.53

CC(C)C[C@H](NC(=O)[C@@H](O)[C@H](N)Cc1ccccc1)C(=O)O [Bestatin (hydrochloride)]
Cholesterol-free media + simvastatin (0.04 μM) [1, 15]: 1.299
Difference [1, 10]: −0.15
Cholesterol-free [2, 7]: 1.217
Complete ([2]; NCI-H292 cells, complete media): 0.9083
Difference [2, 11]: −0.31

NC1=NCC2c3ccccc3Cc3ccccc3N12 (stereo not shown) [Epinastine (hydrochloride)]
Cholesterol-free media + simvastatin (0.04 μM) [1]: 1.515
Complete Media [1]: 1.132
Difference [1]: −0.38
Cholesterol-free [2]: 1.415
Complete [2]: 0.8806
Difference [2]: −0.53

Brimonidine (tartrate)
Cholesterol-free media + simvastatin (0.04 μM) [1]: 1.704
Complete Media [1]: 1.309
Difference [1]: −0.39
Cholesterol-free [2]: 1.093
Complete [2]: 0.9545
Difference [2]: −0.14

O=C1CCc2cc(OCCCCc3nnnn3C3CCCCC3)ccc2N1 [Cilostazol]
Cholesterol-free media + simvastatin (0.04 μM) [1, 15]: 0.8234
Complete Media [1, 16]: 0.9809
Difference [1, 5]: 0.16
Cholesterol-free [2, 7]: 1.501
Difference [2, 11]: −0.33

N#C[C@@H]1C[C@@H]2C[C@@H]2N1C(=O)[C@@H](N)C12CC3CC(CC(O)(C3)C1)C2 [Saxagliptin]
Cholesterol-free media + simvastatin (0.04 μM) ([1]; NCI-H292 cells, cholesterol-free media with simvastatin 0.04 μM, FDA drug library screen (TABLE 2)): 0.8307
Complete Media ([1]; NCI-H292 cells, complete media, FDA drug library screen (TABLE 2)): 0.816
Difference ([1]; complete media minus cholesterol-free media + simvastatin (0.04 μM), >0 enhanced anti-cancer activity, about 0 neutral, <0 antagonist): −0.01
Difference [2, 6]: −0.04
Cholesterol-free [2, 12]: 0.9657
Complete [2, 13]: 0.9238

CN(C)CCCN1c2ccccc2Sc2ccc(C(F)(F)F)cc21 [Triflupromazine (hydrochloride)]
Cholesterol-free media + simvastatin (0.04 μM) [1]: 0.02542
Complete Media [1]: 1.475
Difference [1]: 1.45
Cholesterol-free [2]: 0.9938
Complete [2]: 0.8066
Difference [2]: −0.19

COc1cc2c(cc1OC)[C@H]1C[C@@H](OC(=O)[C@@H](N)C(C)C)[C@H](CC(C)C)CN1CC2 [Valbenazine]
Cholesterol-free media + simvastatin (0.04 μM) [1, 8]: 1.305
Complete Media [1, 9]: 1.011
Difference [1, 10]: −0.29
Difference ([2]; Complete minus Cholesterol-free, greater than 0 enhanced anti-cancer activity, about 0 neutral, below 0 antagonist): −0.16
Cholesterol-free ([2]; NCI-H292 cells, FDA drug library screen, cholesterol-free media without statin): 1.298
Complete [2, 16]: 1.135

CN(C)CCCN1c2ccccc2CCc2ccccc21 [Imipramine (hydrochloride)]
Cholesterol-free media + simvastatin (0.04 μM) [1, 15]: 0.9417
Complete Media [1, 16]: 0.8694
Difference [1, 10]: −0.07
Difference [2, 6]: −0.21
Cholesterol-free [2, 7]: 1.052
Complete ([2]; NCI-H292 cells, complete media): 0.8395

CC(C)COc1ccc(CNC(=O)N(Cc2ccc(F)cc2)C2CCN(C)CC2)cc1 [Pimavanserin]
Cholesterol-free media + simvastatin (0.04 μM) [1, 15]: 0.8784
Complete Media [1, 16]: 1.133
Difference [1, 5]: 0.25
Cholesterol-free [2, 12]: 0.9868
Complete [2, 13]: 1.126
Difference [2, 14]: 0.14

C=C1CCN([C@H](C)[C@](O)(Cn2cncn2)c2ccc(F)cc2F)CC1 [Efinaconazole]
Cholesterol-free media + simvastatin (0.04 μM) [1, 15]: 0.5953
Complete Media [1, 16]: 1.082
Difference [1, 5]: 0.49
Cholesterol-free [2, 7]: 1.307
Complete ([2]; NCI-H292 cells, complete media): 0.8534
Difference [2, 11]: −0.45

NC(=O)[C@@H]1CC[C@@H]2CN1C(=O)N2OS(=O)(=O)O [Avibactam (sodium)]
Cholesterol-free media + simvastatin (0.04 μM) [1, 3]: 1.031
Complete Media [1, 4]: 1.132
Difference [1, 5]: 0.10
Difference ([2]; Complete minus Cholesterol-free, greater than 0 enhanced anti-cancer activity, about 0 neutral, below 0 antagonists): −0.74
Cholesterol-free ([2]; NCI-H292 cells in cholesterol-free media without statin): 1.514
Complete ([2]; NCI-H292 cells in complete media): 0.7743
